The values that follow come from ChEMBL document CHEMBL5291721, “A preclinical secondary pharmacology resource illuminates target-adverse drug reaction associations of marketed drugs” (Nat Commun, 2023).

One test concerns the target T1, Androgen receptor (Rattus norvegicus, UniProt P15207).
T1 sequence (P15207 whole entry): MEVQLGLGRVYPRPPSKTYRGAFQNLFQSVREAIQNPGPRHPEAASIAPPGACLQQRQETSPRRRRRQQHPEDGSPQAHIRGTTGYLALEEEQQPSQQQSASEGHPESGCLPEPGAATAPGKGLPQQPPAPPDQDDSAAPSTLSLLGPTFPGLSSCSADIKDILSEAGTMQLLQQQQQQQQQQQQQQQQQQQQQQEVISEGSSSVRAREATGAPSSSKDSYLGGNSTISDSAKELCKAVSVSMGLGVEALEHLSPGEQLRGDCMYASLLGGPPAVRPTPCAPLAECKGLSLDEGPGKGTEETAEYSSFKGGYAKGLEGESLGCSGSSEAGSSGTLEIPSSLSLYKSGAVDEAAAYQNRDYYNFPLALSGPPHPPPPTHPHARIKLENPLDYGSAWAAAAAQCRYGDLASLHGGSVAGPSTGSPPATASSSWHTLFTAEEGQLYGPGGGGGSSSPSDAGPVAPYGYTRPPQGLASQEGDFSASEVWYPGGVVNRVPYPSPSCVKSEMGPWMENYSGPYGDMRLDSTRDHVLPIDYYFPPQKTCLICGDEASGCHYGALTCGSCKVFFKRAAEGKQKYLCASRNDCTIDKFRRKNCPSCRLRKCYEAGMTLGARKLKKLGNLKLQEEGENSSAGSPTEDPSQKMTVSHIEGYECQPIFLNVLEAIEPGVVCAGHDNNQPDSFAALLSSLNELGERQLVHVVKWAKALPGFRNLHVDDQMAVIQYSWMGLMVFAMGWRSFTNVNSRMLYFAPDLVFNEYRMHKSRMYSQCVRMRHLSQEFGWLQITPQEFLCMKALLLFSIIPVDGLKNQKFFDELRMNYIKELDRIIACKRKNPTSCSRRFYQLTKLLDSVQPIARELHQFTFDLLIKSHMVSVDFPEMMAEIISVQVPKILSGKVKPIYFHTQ
The test is classed as functional.

For a further test, the target named is T2, Substance-K receptor (Homo sapiens, UniProt P21452).
T2 sequence (P21452 whole entry): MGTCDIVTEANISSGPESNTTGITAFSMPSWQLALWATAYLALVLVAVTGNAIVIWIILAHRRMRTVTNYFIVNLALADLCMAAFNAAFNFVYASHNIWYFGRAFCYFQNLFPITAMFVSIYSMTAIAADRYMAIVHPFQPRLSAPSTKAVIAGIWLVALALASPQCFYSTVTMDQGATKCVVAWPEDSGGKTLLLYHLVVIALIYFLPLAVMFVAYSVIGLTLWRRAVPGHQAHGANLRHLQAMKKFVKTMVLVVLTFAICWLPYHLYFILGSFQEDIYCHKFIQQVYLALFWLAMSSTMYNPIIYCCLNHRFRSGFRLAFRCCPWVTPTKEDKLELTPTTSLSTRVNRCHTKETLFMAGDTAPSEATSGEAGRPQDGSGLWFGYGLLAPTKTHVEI

Test [1] addresses T3, Retinoic acid receptor beta (Homo sapiens, UniProt P10826).
T3 sequence (P10826 whole entry): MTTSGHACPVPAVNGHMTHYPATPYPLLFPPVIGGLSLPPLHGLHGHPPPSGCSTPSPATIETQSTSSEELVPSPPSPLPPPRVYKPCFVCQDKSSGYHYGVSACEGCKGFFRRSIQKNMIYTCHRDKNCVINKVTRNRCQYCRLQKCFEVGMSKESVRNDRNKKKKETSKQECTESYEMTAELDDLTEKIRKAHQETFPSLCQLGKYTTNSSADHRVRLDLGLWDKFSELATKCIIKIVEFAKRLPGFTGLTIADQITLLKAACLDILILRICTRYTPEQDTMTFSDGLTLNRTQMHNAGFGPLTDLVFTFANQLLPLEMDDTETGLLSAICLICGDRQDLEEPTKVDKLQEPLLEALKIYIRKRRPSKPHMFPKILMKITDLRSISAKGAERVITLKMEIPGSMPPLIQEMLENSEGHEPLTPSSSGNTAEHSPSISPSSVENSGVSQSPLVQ
The class given is functional, cell-based.

Test [2] has as its target T3, Retinoic acid receptor beta. The test is classed as functional, cell-based. This is another data set of the same source.
For test [3], the target named is T4, Retinoic acid receptor gamma (Homo sapiens, UniProt P13631).
T4 sequence (P13631 whole entry): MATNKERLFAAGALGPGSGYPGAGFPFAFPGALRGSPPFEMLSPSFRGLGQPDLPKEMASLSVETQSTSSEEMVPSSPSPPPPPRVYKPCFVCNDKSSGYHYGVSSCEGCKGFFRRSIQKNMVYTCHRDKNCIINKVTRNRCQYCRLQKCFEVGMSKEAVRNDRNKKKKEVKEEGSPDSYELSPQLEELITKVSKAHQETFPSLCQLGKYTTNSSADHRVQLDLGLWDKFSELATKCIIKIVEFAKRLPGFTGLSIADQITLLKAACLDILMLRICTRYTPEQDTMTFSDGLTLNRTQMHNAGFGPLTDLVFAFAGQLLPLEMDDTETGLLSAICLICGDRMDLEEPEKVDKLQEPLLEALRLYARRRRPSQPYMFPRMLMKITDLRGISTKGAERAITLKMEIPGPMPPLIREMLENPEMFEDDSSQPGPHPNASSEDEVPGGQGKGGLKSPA
The class given is functional, cell-based.
Note: assay procedure not described here.

For `CCN(CC)CCn1c(=O)c(Cc2ccc(OC)cc2)nc2ccccc21` [CAROVERINE], on Androgen receptor, the AC50 (usually the concentration giving half of the maximal activity seen) is greater than 30 µM.

On Substance-K receptor, `CCOC(=O)[C@H](CCc1ccccc1)N[C@@H](C)C(=O)N1Cc2ccccc2C[C@H]1C(=O)O` returned an AC50 greater than 10 µM.

For `CC(C)/N=c1\cc2n(-c3ccc(Cl)cc3)c3ccccc3nc-2cc1Nc1ccc(Cl)cc1` [CLOFAZIMINE], the AC50 in test [1], in test [2] and in test [3] was greater than 30 µM each time.
